In patent US11345745B2, “Peptide-hinge-free flexible antibody-like molecule” (BIOMOLECULAR HOLDINGS LLC, priority 2011, dated 2022):

Test system: anti-Aβ mAb (6E10)
Assay: Surface plasmon resonance (SPR) binding to immobilized anti-Aβ monoclonal antibody 6E10
Conditions: 6E10 immobilized on the surface of the SPR chip
Procedure: SPR tests were carried out using a Biacore T100 instrument (Biacore AB, Uppsala, Sweden). A ligand, biotin-labeled 6E10 monoclonal antibody (Covance, Princeton, N.J.), was immobilized at a concentration of 10 mg/ml in PBS onto a CAP sensor chip, Series S, using a Biotin CAPture Kit (GE Healthcare, Piscataway, N.J.). The sensor chip was loaded with a streptavidin capture reagent and regenerated according to the manufacturer's instruction, including an additional regeneration step using 0.25 MNaOH in 30% acetonitrile. Binding of Aβ symmetroadhesins and Aβ peptides was carried out at 25° C. in 10 mM Hepes buffer, pH 7,4, 150 mM NaCl, 3 mM EDTA, and 0.005 vol % Tween-20. Data was evaluated using Biacore T100 Evaluation Software, version 2.0.3.
Accordingly, the present inventors characterized the binding of the Aβ symmetroadhesins of the present inventors to one of these antibodies (6E10) using surface plasmon resonance (SPR). The present inventors compared the binding of Aβ peptides containing the [sequence] sequence (SEQ ID No. 2) which were expected to bind to 6E10 in a one-handed manner.

## Fc6: recombinant human IgG1 Fc protein beginning at 226CPPC core hinge, N-terminal cysteine, expressed in CHO cells
  binding to immobilized 6E10 (observed or not): No binding
